Consider 15 molecules from PubChem BioAssay AID304 (DTP/NCI, 2004).

Where “and” joins values, the source holds several entries; their conditions need not be identical. Equal values may be shown once. Toxic doses and inconclusive results are not listed. Starred links: 1 amine or outer side, 2 acyl side, 3 side chain; linkers in the order of their positions; H or OH if unused. Positions of bridges follow the written chain, without caps; N, C: chain ends. Non-standard residues stand in square brackets, D forms with d. Residues, ends and D or L forms follow the SMILES beside them. Chains are numbered I, II in the order given. Actinocin(9to1) = Cc1c2oc3c(C)ccc(C(=O)[*:1])c3nc-2c(C(=O)[*:2])c(N)c1=O; aThr = C[C@H](O)[C@H](N)C(=O)O; NMeV = CN[C@H](C(=O)O)C(C)C; Sar = CNCC(=O)O

The assay has as its system Lymphosarcoma Mecca ip in C3AKF1 mice, survival T/C%. Description: NCI In Vivo Anticancer Drug Screen. Data for tumor model Lymphosarcoma Mecca (intraperitoneal) in C3AKF1 (CHKRF1) mice. As to conditions: endpoint: survival time, mean or median, schedule: Q01DX010 (ip), higher = longer survival. How it is done: The antitumor activity of compounds was measured in mice bearing transplantable tumors. Survival or tumor size were measured and the results are expressed as the measurement made in the treated group (T) divided by the measurement made in the vehicle treated control group (C). The tumor model used in this assay is Lymphosarcoma Mecca (intraperitoneal) in C3AKF1 (CHKRF1) mice

The mark [1] stands for this setting: dose: 12.5 mg/kg/injection, vehicle: saline.
[2] abbreviates: dose: 25.0 mg/kg/injection, vehicle: saline.
[3] abbreviates: dose: 200.0 mg/kg/injection, vehicle: saline.
Where [4] appears, read: dose: 6.0 mg/kg/injection, vehicle: saline.
The mark [5] stands for this setting: dose: 8.0 mg/kg/injection, vehicle: saline.
Setting [6] is: dose: 12.0 mg/kg/injection, vehicle: saline.
The mark [7] stands for this setting: dose: 50.0 mg/kg/injection, vehicle: saline.
Where [8] appears, read: dose: 100.0 mg/kg/injection, vehicle: saline.
[9] abbreviates: dose: 2.5 mg/kg/injection, vehicle: saline.
The mark [10] stands for this setting: dose: 5.0 mg/kg/injection, vehicle: saline.
Setting [11] is: dose: 10.0 mg/kg/injection, vehicle: saline.
Where [12] appears, read: dose: 20.0 mg/kg/injection, vehicle: saline.
The mark [13] stands for this setting: dose: 80.0 mg/kg/injection, vehicle: saline.

On to `CO[C@@H]1[C@@H](OC2OC(C)C(OC3CC(C)(O)C(OC(=O)CC(C)C)C(C)O3)C(N(C)C)C2O)[C@@H](CC=O)C[C@@H](C)C(=O)/C=C/C2O[C@H]2C[C@@H](C)OC(=O)C[C@H]1OC(C)=O` (stereo not given in full), for which the T/C reads like this: (dose: 4.7 mg/kg/injection, vehicle: saline) 90 % of control; (dose: 9.4 mg/kg/injection, vehicle: saline) 100 % of control; (dose: 18.8 mg/kg/injection, vehicle: saline) 90 % of control; (dose: 37.5 mg/kg/injection, vehicle: saline) 90 % of control and 95 % of control; (dose: 75.0 mg/kg/injection, vehicle: saline) 86 % of control.
Consider `COc1cc(-c2ccc(Nc3ccccc3C(=O)O)c(OC)c2)ccc1Nc1ccccc1C(=O)O`, for which the T/C by setting is: under setting [1], 111 % of control; under setting [2], 120 % of control and 122 % of control; under setting [3], 105 % of control.
On to `O=C(Nc1ccc(C2=NCCN2)cc1)c1ccc(C(=O)Nc2ccc(C3=NCCN3)cc2)c([N+](=O)[O-])c1`, for which the T/C runs as follows: under setting [4], 116 % of control; under setting [5], 116 % of control; under setting [6], 116 % of control.
`CCN(CC)CCNc1ccc(C)c2sc3ccccc3c(=O)c12`: the T/C was 116 % of control and 122 % of control under setting [2]; 105 % of control under setting [7]; 111 % of control under setting [8].
Turning to `CC[n+]1c(-c2ccccc2)c2cc(N)ccc2c2ccc(N)cc21`, the T/C was 100 % of control (dose: 1.25 mg/kg/injection, vehicle: saline); 100 % of control and 120 % of control under setting [9]; 100 % of control under setting [10]; 105 % of control and 120 % of control under setting [11]; 105 % of control under setting [12].
With `O=c1[nH]c(=O)n(C2CC(O)C(CO)O2)cc1F` (stereo not given), the T/C is, setting by setting: under setting [10], 100 % of control; under setting [11], 109 % of control and 115 % of control; under setting [12], 113 % of control and 120 % of control; under setting [13], 159 % of control.
For the molecule `O=C(Nc1ccc(C2=NCCCN2)cc1)c1ccc(C(=O)Nc2ccc(C3=NCCCN3)cc2)cc1`, the T/C is 111 % of control and 116 % of control (dose: 1.0 mg/kg/injection, vehicle: saline); 116 % of control and 122 % of control (dose: 2.0 mg/kg/injection, vehicle: saline); 150 % of control under setting [5].
For the molecule `N=C(N)c1ccc(Nc2ccc(C(=N)N)cc2)cc1`, the T/C is 100 % of control (dose: 3.0 mg/kg/injection, vehicle: saline); 90 % of control and 100 % of control under setting [4]; 100 % of control and 110 % of control under setting [6]; 100 % of control (dose: 24.0 mg/kg/injection, vehicle: saline).
With `O=NN(CCCl)C(=O)NCCCl`, the T/C (dose: 6.25 mg/kg/injection, vehicle: saline) was 275 % of control and 303 % of control; the T/C under setting [1] was 151 % of control and 155 % of control; the T/C under setting [2] is 92 % of control and 115 % of control.
Consider `CS(=O)(=O)OCCC(=O)N1CCN(C(=O)CCOS(C)(=O)=O)CC1`, for which the T/C is 120 % of control under setting [1]; 105 % of control and 110 % of control under setting [2]; 160 % of control under setting [8].
Turning to `CCOC(=O)NP(=O)(N1CC1)N1CC1`, the T/C was 111 % of control and 116 % of control under setting [9]; 116 % of control and 122 % of control under setting [10]; 122 % of control under setting [11].
Take `Cc1c2oc3c(C)ccc(C(=O)N[C@@H]4C(=O)N[C@H](C(C)C)C(=O)N5CCC[C@H]5C(=O)N(C)CC(=O)N(C)[C@@H](C(C)C)C(=O)O[C@H]4C)c3nc-2c(C(=O)N[C@@H]2C(=O)N[C@H](C(C)C)C(=O)N3CCC[C@H]3C(=O)N(C)CC(=O)N(C)[C@@H](C(C)C)C(=O)O[C@H]2C)c(N)c1=O` (I: [aThr][dV]P[Sar][NMeV] / II: [aThr][dV]P[Sar][NMeV]; ester I:1-I:C, II:1-II:C; linker I:N-II:N via Actinocin(9to1)): the T/C reads like this: (dose: 13.0 micrograms/kg/injection, vehicle: acid diluted with saline) 183 % of control; (dose: 25.0 micrograms/kg/injection, vehicle: acid diluted with saline) 103 % of control; (dose: 50.0 micrograms/kg/injection, vehicle: acid diluted with saline) 123 % of control.
As for `COc1cc(-c2ccc(Nc3ccccc3C(=O)O)c(OC)c2)ccc1N`, the T/C is, setting by setting: under setting [11], 105 % of control and 110 % of control; under setting [12], 111 % of control and 115 % of control; (dose: 40.0 mg/kg/injection, vehicle: saline) 122 % of control; under setting [13], 111 % of control.
Take `OC(CBr)C(O)C(O)C(O)CBr` (stereo not given): the T/C under setting [2] was 100 % of control; the T/C under setting [7] is 100 % of control; the T/C under setting [8] was 100 % of control and 110 % of control; the T/C under setting [3] was 89 % of control; the T/C (dose: 400.0 mg/kg/injection, vehicle: saline) is 115 % of control.
`CCn1cnc2c(=S)nc[nH]c21`: the T/C runs as follows: (dose: 15.6 mg/kg/injection, vehicle: saline) 100 % of control; (dose: 31.3 mg/kg/injection, vehicle: saline) 100 % of control; (dose: 62.5 mg/kg/injection, vehicle: saline) 90 % of control; (dose: 125.0 mg/kg/injection, vehicle: saline) 100 % of control.
